Experimental data: patent US6969729B2, “Use of isatin derivatives as ion channel activating agents” (Neurosearch A/S, priority 1998, dated 2005)

SMILES	melting point
O=C1Nc2ccc(Br)cc2C1=NO [Compound 1a, 5-Bromoisatin 3-oxime]	250 to 251 °C
CN1C(=O)C(=NO)c2cc(Cl)c(Cl)cc21 [Compound 1b, 5,6-dichloro-1-methylisatin 3-oxime]	232 to 236 °C
CN1C(=O)C(=NO)c2c1ccc(Cl)c2Cl [Compound 1d, 4,5-dichloro-1-methylisatin 3-oxime]	140 to 142 °C
CN1C(=O)C(=NO)c2ccc(Cl)c(Cl)c21 [Compound 1j, 6,7-Dichloro-1-methylisatin 3-oxime]	> 200 °C
O=C1Nc2c(ccc(F)c2F)C1=NO [Compound 1o, 6,7-Difluoroisatin 3-oxime]	263 to 264 °C
Cc1ccc2c(c1C)NC(=O)C2=NO [Compound 1p, 6,7-Dimethylisatin 3-oxime]	283 to 284 °C
O=C1Nc2cc(Cl)c(Cl)cc2C1=NO [Compound 1q, 5,6-Dichloroisatin 3-oxime]	274 to 275 °C
Cc1c(Cl)ccc2c1NC(=O)C2=NO [Compound 1u, 6-Chloro-7-methylisatin 3-oxime]	> 300 °C
Cc1c(F)ccc2c1NC(=O)C2=NO [Compound 1v, 6-Fluoro-7-methylisatin 3-oxime]	286 °C (dec.)
COc1c(F)ccc2c1NC(=O)C2=NO [Compound 1w, 6-Fluoro-7-methoxyisatin 3-oxime]	268 to 270 °C
